Measured values taken from article PMC11769294, “(E)-1-(3-(3-Hydroxy-4-Methoxyphenyl)-1-(3,4,5-Trimethoxyphenyl)allyl)-1H-1,2,4-Triazole and Related Compounds: Their Synthesis and Biological Evaluation as Novel Antimitotic Agents Targeting Breast Cancer” (Pharmaceuticals, 2025).

Legend:
HL-60 cells = experiment: alamarBlue cell viability assay; format: cell-based; conditions: Homo sapiens
Method: Figure 7 Preliminary cell viability data for (A) triazoles 22b–d, 22f, 22g and imidazole 23d and (B) triazoles 26a–e and imidazoles 27a, 27b, 27e, 27f, 27h and 27i in HL-60 cells. Cell proliferation of HL-60 cells was determined with an alamarBlue assay (seeding density 2.5 × 10^4 cells/mL per well for 96-well plates). Compound concentrations of either 1 or 0.1 μM for 72 h were used to treat the cells (in triplicate) with control wells containing vehicle ethanol (1% v/v). The mean value ± SEM for three independent experiments is shown. The positive control was CA-4 (1.0 μM and 0.1 μM).
HL-60 cells were suspension cells and the seeding density for the viability assay was 25,000 cells/mL. […]
The biochemical assays were performed in triplicate and on at least three independent occasions to facilitate the determination of mean values. […] Adherent cells such as MCF-7, MDA-MB-231, and MCF-10A were trypsinized to detach them from the flask, counted as previously described, and seeded in 96 well plates with a seeding density of 25,000 cells /mL (200 µL of suspension in each well so that the final number of cells per well was 5000) and 1 × 10^4 cells/well seeding density for suspension HL-60 cells. […] After 72 h, the change in color was measured by spectrofluorimetry at an excitation wavelength of 544 nm and emission wavelength of 590 nm. […]

[1] = system: tubulin in MCF-7 breast cancer cells; experiment: Immunofluorescence confocal microscopy of microtubules; format: cell-based, human; conditions: 16 h, 22b 10 μM, paclitaxel and phenstatin 1 μM
Method: Briefly, the MCF-7 cells were seeded at a density of 1 × 10^5 cells/mL on eight chamber glass slides (BD Biosciences). […] The cells were then washed in PBS, fixed for 20 min with 4% paraformaldehyde in PBS, and permeabilized in 0.5% Triton X-100. […] Images of the cells were obtained using Leica SP8 confocal microscopy (Wetzlar, Germany) with Leica application suite X software (Wetzlar, Germany). Experiments were performed on three independent occasions.
The micrograph images were obtained with Leica SP8 confocal microscopy utilizing Leica application suite X software. Representative confocal images of three separate experiments are shown. The scale bar indicates 25 μm.

CYP19 (aromatase) = CYP19 (aromatase) (Homo sapiens, UniProt P11511); experiment: Cytochrome P450 assay (DBF fluorescence); conditions: read-out: inhibition of CYP19
Chain of CYP19 (aromatase) (P11511 whole entry): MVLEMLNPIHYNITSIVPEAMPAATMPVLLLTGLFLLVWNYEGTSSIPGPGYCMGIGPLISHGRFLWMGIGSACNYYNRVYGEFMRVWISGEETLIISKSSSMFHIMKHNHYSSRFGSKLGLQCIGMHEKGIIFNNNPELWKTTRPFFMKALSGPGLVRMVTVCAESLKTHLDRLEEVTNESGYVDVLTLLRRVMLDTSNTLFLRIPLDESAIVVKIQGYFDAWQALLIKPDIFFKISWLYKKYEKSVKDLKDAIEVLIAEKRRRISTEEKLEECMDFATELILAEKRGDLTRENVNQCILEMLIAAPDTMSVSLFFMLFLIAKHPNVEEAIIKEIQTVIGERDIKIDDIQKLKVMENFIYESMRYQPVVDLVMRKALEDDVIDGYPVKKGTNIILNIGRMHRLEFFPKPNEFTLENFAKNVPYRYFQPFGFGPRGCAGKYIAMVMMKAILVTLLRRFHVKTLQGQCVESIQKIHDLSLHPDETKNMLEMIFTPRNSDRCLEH

With `COc1ccc(/C=C/C(c2cc(OC)c(OC)c(OC)c2)n2cncn2)cc1O` (stereo not shown) [Compound 22b, (E)-5-(3-(1H-1,2,4-Triazol-1-yl)-3-(3,4,5-trimethoxyphenyl)prop-1-en-1-yl)-2-methoxyphenol] the IC50 (HL-60 cells) was 370 nM, the IC50 (HL-60 cells; 72 h) was 366 ± 130 nM and the “effect on microtubule network” value [1] was “disorganized microtubule network structure similar to that observed with phenstatin, together with multinucleation”. For the same compound, the inhibition at 50 µM (CYP19 (aromatase)) was 93%.
